Assay results published in patent publication US6492137B1, “Response element compositions and assays employing same” (The Salk Institute for Biological Studies, priority 1989, dated 2002).

Columns and labels:
[1] = system: F9 teratocarcinoma stem cells; test: CAT reporter transfection into RA responsive F9 teratocarcinoma stem cells; assay type: cell-based, mouse; details: RA 1 μM, 24 hours; no transfected receptor
Method: (§1) For cotransfection assays, a monkey kidney cell line CV-1 was kept in Dulbecco's modified Eagle's medium (DMEM) supplemented with 10% charcoal-resin double split calf bovine serum. Transfections were performed via calcium-phosphate precipitation method as described by Umesono, et al. in Cell 57: 1139-1146 (1989), with 0.5 μg of a pRS receptor expression plasmid, 1.0 μg of a reporter CAT plasmid, 5 μg of pRAS-βGAL [Umesono, et al., Cell 57: 1139-1146 (1989)] as an internal control, and 8.5 μg of carrier plasmid pUC19. The cells were transfected for 8 hours; after washing the DNA precipitates, the cells were then incubated for an additional 36 hours with or without the ligand (T3, 100 nM; RA, 1 μM; 1,25-(OH)2 vitamin D3, 100 nM). Cell extracts were prepared for βGAL and CAT assays, as described by Umesono, et al., supra. Transfection of F9 teratocarcinoma cells was carried out employing a similar method except the cells were incubated for 12 hours in the presence of the DNA precipitates, and the RA was added at 1 μM for another 24 hours before harvesting the cells. 2, 5, and 4 μg of the reporter, pRAS-βGAL, and pUC19 were used, respectively.
Similarly, when the same set of reporters as in FIG. 4 were transfected into F9 cells, only MHC-R (5-nucleotide spacer) and TREp are potent RAREs. In contrast, its RARE antecedents (MHC-N, MHC+1, MHC-T) are inert.

TRβ = biological target: T1, TRβ (Homo sapiens, UniProt P10828); test: ΔSV-CAT reporter cotransfection assay in CV-1 cells with TRβ expression plasmid, ±T3; assay type: cell-based; parameters: expressed in transfected cells; host or cells: CV-1 (monkey kidney); details: TRβ expression vector
T1 sequence (P10828 1-461): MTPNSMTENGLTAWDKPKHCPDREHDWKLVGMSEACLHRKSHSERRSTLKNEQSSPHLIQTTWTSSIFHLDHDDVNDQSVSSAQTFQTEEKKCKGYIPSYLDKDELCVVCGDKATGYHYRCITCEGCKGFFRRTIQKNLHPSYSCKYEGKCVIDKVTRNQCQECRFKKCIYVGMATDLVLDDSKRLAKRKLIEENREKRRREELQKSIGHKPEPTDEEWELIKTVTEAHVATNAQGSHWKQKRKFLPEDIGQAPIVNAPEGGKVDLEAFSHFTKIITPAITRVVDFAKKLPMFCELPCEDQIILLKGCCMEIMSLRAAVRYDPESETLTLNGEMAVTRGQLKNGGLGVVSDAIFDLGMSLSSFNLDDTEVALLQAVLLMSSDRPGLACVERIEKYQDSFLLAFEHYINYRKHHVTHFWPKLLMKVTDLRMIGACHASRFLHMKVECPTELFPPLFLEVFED
Excerpt: Receptor expression plasmids used in the following cotransfection assays have been described previously (pRShTRβ [see Thompson, et al., Proc. Natl. Acad. Sci. U.S.A. 86: 3494-3498 (1989)]; pRShRARα [see Giguere, et al., Nature 330: 624-629 (1987)]; pRShRARβ and pRshRARγ [see Ishikawa, et al., Mol. Endocrinol, 4: 837-844 (1990)]; and pRShVDR, [Schule, et al., Cell 61: 497-504 (1990)]. A basal reporter plasmid ΔSV-CAT was constructed by replacing the TK promoter in TK-CAT [Damm, et al., Nature 339: 593-597 (1989)] with the SphI-HindIII fragment of the SV40 early promoter. All of the recombinant CAT reporter plasmids used herein harbor a single copy of the indicated oligonucleotides at the unique HindIII site upstream of the SV40 promoter. […] To improve production of receptor proteins in COS cells, a new eukaryotic expression vector pCMX was prepared by modifying the plasmid CDM8 [Seed, B., Nature 329: 840-842 (1987)]. The CDM8 was cut with MluI and StuI in order to release the DNA fragment encoding the CMV/T7 promoter, SV40 small t intron/poly A signal, polyoma virus enhancer/origin, and SV40 enhancer/origin. The resulting fragment was ligated to a larger fragment of PvuII-digested PUC19. An internal deletion was introduced between unique BamHI and BclI sites present in the DCM8 portion. The stuffer sequence flanked by XbaI sites was replaced with a synthetic polylinker coding for 5′-KpnI/Asp718-EcoRV-BamHI -MscI-NheI-3′, followed by a stretch of 5′-[…]-3′ (SEQ ID NO:48) which can function as a universal termination signal for protein translation. The coding sequence of the luciferase [de Wet, et al., Mol. Cell. Biol. 7: 725-737 (1987)] and human TRβ, RARα, and VDR was placed in the polylinker region of the pCMX, generating pCMX-LUC, Pcmx-Htrβ, pCMX-hRARα, and pCMX-hVDR, respectively. The translation start site of the RARα was modified to […] by attaching the synthetic linker encoding a consensus translation start signal [Hollenberg, et al., Cell 55: 899-906 (1988)].
as §1
Target hormone response elements described in FIG. 3 were synthesized as double-stranded oligonucleotides with an overhanging tetranucleotide (5′-agct-3′) at both ends. A single copy of these oligonucleotides was cloned at the unique HindIII site present in the basal promoter CAT construct ΔSV-CAT. Capitalized portions in the nucleotide sequences correspond to those found in the natural promoters except TREp and rGH21, which are synthetic. Bold letters indicate the “AGGTCA” motif and “X” denotes a nucleotide substitution from this motif.

Substance	function as RARE in F9 cells [1]	T3 responsiveness (in words) (TRβ)
TREp: optimized palindromic rat growth hormone TRE (SEQ ID NO:10) (AGCTTCAGGTCATGACCTGAGAGCT; DNA, backbone not given here; double-stranded response element with agct overhangs, cloned into reporter plasmid) [reference compound]	potent RAREs	responsive to T3
GDR-4: identical to DR-4 except half-site changed to AGAACA, a GRE half-site (SEQ ID NO:28) (AGCTTCAGAACACAGGAGAACAGAGAGCT; DNA, backbone not given here; double-stranded DNA response element with agct overhangs, cloned into reporter)		completely inactive
MHC-N: 23-nucleotide core of the wild-type sequence (MHC-TRE) (SEQ ID NO:14) (AGCTGGAGGTGACAGGAGGACAGCAAGCT; DNA, backbone not given here; further chemistry not fully specified)	inert	
GDR-3: identical to DR-3 except half-site changed to AGAACA, a GRE half-site (SEQ ID NO:26) (AGCTTCAGAACAAGGAGAACAGAGAGCT; DNA, backbone not given here; double-stranded DNA response element with agct overhangs, cloned into reporter)		completely inactive
